Laboratory results published in PMC8931250, “A SURF4-to-proteoglycan relay mechanism that mediates the sorting and secretion of a tagged variant of sonic hedgehog” (Proceedings of the National Academy of Sciences of the …, 2022).
One block for each molecule: values may come before it.

Legend:
GST-SURF4^49-60 = target: T1, GST-SURF4^49-60 (Homo sapiens, UniProt O15260); assay: Peptide bead pull down with purified GST-SURF4^49-60 as prey; assay type: binding; settings: normalized to CW peptides; n = 3, mean ± SD (values only in Fig. 3O); anti-GST immunoblot; HK buffer pH 7.2, 4 °C
T1 construct: SURF4 (49-60) in the same buffer was in the calorimetric cell; made in house; host or cells: Escherichia coli
Method: (§1) Immunoprecipitation was performed as described ([27]). Purification of GST-tagged ShhN^25-49 and GST-tagged SURF4^49-60 was performed as described previously ([54]). GST pull down assays were performed as described previously ([54]). Peptide binding assay was performed as described previously ([27]). […]
in cold KOAc buffer (110 mM KOAc, 2 mM Mg(OAc)2, 20 mM Hepes, pH 7.2). Then cells were permeabilized by 0.03 mg/ml digitonin in KOAc buffer for 6 min at room temperature. The permeabilized cells were washed with cold KOAc buffer. […]
(§2) Binding assays between Myc- tagged SURF4 or Myc-tagged SURF4ED-AA and HA-tagged ShhN or ShhN∆33- 39 were performed by treating HEK293T cells co -transfected with plasmids encoding the indicated proteins in 1 × PBS containing 2 mM dithiobis[succinimidylpropionate] […] After incubation, the beads were washed 4 times with 1 ml of HK buffer (100 mM KCl, 20 mM Hepes, pH 7.2), and the bound material was analyzed by immunoblotting. […]
(§3) After incubation, the beads were washed three times with 500 µ l of HKT buffer and twice with 500 µ l of HK buffer, and the bound material was analyzed by immunoblotting. […]
(§4) reaction mixture for 1 h at 4 °C. The beads were washed four times with 500 µ l of HK buffer and analyzed […]
Label-free quantitative mass spectrometry […]

[1] = system: packaging of ShhN-HA into transport vesicles; assay: In vitro vesicle formation assay, packaging of ShhN-HA; assay type: cell-based
Method: (§5) To analyze whether the CW motif is important for the packaging of ShhN into COPII vesicles, we reconstituted vesicular release of ShhN in HEK293T cells (Fig. 1T). HEK293T cells transfected with 3xHA-tagged ShhN (ShhN-HA) were permeabilized by digitonin. After permeabilization, the semi-intact cells were washed with buffer to remove endogenous cytosolic proteins. Semi-intact cells were then incubated at 30 °C with rat liver cytosol (RLC), GTP, and an ATP regeneration system (ATPrS) in the presence or absence of a GTP hydrolysis defective mutant form of Sar1A, Sar1A (H79G). The vesicles released were then isolated by centrifugation and analyzed by immunoblotting (Fig. 1T). […] Deleting residues 33 to 49 (Fig. 1V) or deleting the CW motif (residues 33 to 39) in ShhN caused a significant reduction in the efficiency of packaging of ShhN into vesicles (Fig. 1W and quantification in Fig. 1X), while the abundance of ERGIC53 in transport vesicles was unchanged (Fig. 1Y). […]
as §4
(§6) Label-free quantitative mass spectrometry
(§7) Mass spectrometry was performed to identify the proteins involved in Shh secretion. […] Finally, the resulted peptides were analyzed by Mass Spectrometer. The tandem mass spectra were then subject to protein identification and label-free quantification by Proteome Discoverer. […]

[2] = system: packaging of ERGIC53 into transport vesicles; assay: In vitro vesicle formation assay, packaging of ERGIC53; assay type: cell-based; settings: semi-intact HEK293T cells, rat liver cytosol, GTP, ATPrS, 0.5 µg Sar1A (H79G)
Method: as §5, §4, §6, §7

[3] = system: COPII-dependent ER export; settings: cited from earlier work
Method: To analyze whether the CW motif is important for the packaging of ShhN into COPII vesicles, we reconstituted vesicular release of ShhN in HEK293T cells (Fig. 1T). HEK293T cells transfected with 3xHA-tagged ShhN (ShhN-HA) were permeabilized by digitonin. After permeabilization, the semi-intact cells were washed with buffer to remove endogenous cytosolic proteins. Semi-intact cells were then incubated at 30 °C with rat liver cytosol (RLC), GTP, and an ATP regeneration system (ATPrS) in the presence or absence of a GTP hydrolysis defective mutant form of Sar1A, Sar1A (H79G). The vesicles released ...

SURF4-Myc = assay: Crosslinking co-IP of SURF4-Myc with HA-tagged cargo; assay type: binding, human; settings: HEK293T, 2 mM DSP
Method: as §1
Immunoprecipitation, protein purification, and binding assay
Immunoprecipitation of HA-tagged ShhN was performed by incubating 200 µl of 0.5 mg/ml cell lysates from HEK293T cells transfected with ShhN- HA in HKT buffer with 10 μl of compact anti-HA agarose affinity beads with mixing at 4 °C overnight. After incubation, the beads were washed 4 times with 1 ml of HK buffer (100 mM KCl, 20 mM Hepes, pH 7.2), and the bound material was analyzed by Coomassie blue staining and immunoblotting.
as §2, §3

ShhN-SURF4 interaction = assay: Heparin competition in GST pull down of SURF4-HA by ShhN^25-49-GST; assay type: binding, human; settings: n = 3
Method: as §1
Immunoprecipitation, protein purification, and binding assay […]
After incubation, the beads were washed 4 times with 1 ml of HK buffer (100 mM KCl, 20 mM Hepes, pH 7.2), and the bound material was analyzed by Coomassie blue staining and immunoblotting.
Binding assays between Myc- tagged SURF4 or Myc-tagged SURF4ED-AA and HA-tagged ShhN or ShhN∆33- 39 were performed by treating HEK293T cells co -transfected with plasmids encoding the indicated proteins in 1 × PBS containing 2 mM dithiobis[succinimidylpropionate] (DSP) and 2 mM CaCl2 at room temperature for 30 min, and then quenched with 25 mM Tris-HCl, pH 7.5. 200 µl of 0.5 mg/ml cell lysates were incubated with 10 μl of compact anti-HA agarose affinity beads with mixing at 4 °C overnight. After incubation, the beads were washed 4 times with 1 ml of HK buffer (100 mM KCl, 20 mM Hepes, pH 7.2), and the bound material was analyzed by immunoblotting. […]
as §3

CW peptides (KRRHPKKC) = target: T2, CW peptides (KRRHPKKC) ( (human or mouse cDNA cloned)); assay: ITC; isothermal titration calorimetry of CW peptides with GST-SURF4^49-60 or GST; settings: both partners purified
T2 construct: Cardin-Weintraub (CW) motif of Shh, residues 33 to 39 in ShhN; C-terminal cysteine printed after the KRRHPKK motif; In the pull-downs the peptide was covalently linked to thiopyridone Sepharose 6B; also called peptides corresponding to the CW motif; source: synthetic peptide
T2 peptide: KRRHPKKC

Molecule: AAAHPAAC [CW(KR-AA), alanine substituted mutant (AAAHPAAC)]
level of GST-SURF4^49-60 bound relative to CW peptides (GST-SURF4^49-60): bound more efficiently to the wild-type CW sequence than an alanine substituted mutant

Molecule: Sar1A (H79G): GTP hydrolysis defective mutant form of Sar1A
efficiency of packaging of ShhN-HA into transport vesicles ([1]; HEK293Trex cells, SAR1A (H79G)): reduced the efficiency of packaging
efficiency of packaging of ShhN-HA into transport vesicles ([1]; semi-intact HEK293T cells, rat liver cytosol, GTP, ATPrS, 0.5 µg Sar1A (H79G)): greatly reduced
efficiency of packaging of ERGIC53 into transport vesicles [2]: greatly reduced
COPII-dependent ER export [3]: inhibits COPII-dependent ER export
membrane association of SEC23A/B [3]: enhances membrane association of SEC23A/B
vesicular capture of SEC22B and ERGIC53 [3]: abolishes the vesicular capture
vesicular release of TGN46 [3]: does not affect the vesicular release

Molecule: ShhN-HA: 3xHA-tagged N-terminal fragment of Shh without the cholesterol modification
percentage of SURF4-Myc bound to ShhN-HA vs CW motif-depleted ShhN (SURF4-Myc; n = 3): significantly higher than the percentage of SURF4-Myc that bound to ShhN^Δ33-39-HA
interaction with SURF4 vs IGF2 (SURF4-Myc; SURF4-Myc, HA beads): more robustly than IGF2

Molecule: VRRFRYPERPC [peptides corresponding to the first intracellular loop of Frizzled6 (…)]
level of GST-SURF4^49-60 bound relative to CW peptides (GST-SURF4^49-60): significantly lower than that bound to the CW peptides

Molecule: heparin
inhibition of the interaction between ShhN and SURF4 (ShhN-SURF4 interaction; GST pull down with ShhN^25-49-GST and SURF4-HA lysate): inhibited the interaction between ShhN and SURF4 in a concentration-dependent manner
inhibition of the ShhN-SURF4 interaction at pH 6.0 (ShhN-SURF4 interaction; pH 6.0): still inhibits the ShhN-SURF4 interaction

Kd (CW peptides (KRRHPKKC)): 2350 ± 90 nM
B1: GST-SURF4^49-60 (domain or fragment, human, UniProt O15260 49-60, looked up)
chain: SEQRDYIDTTWN
notes: first luminal loop of SURF4, amino acids 49 to 60; also called GST-tagged SURF4^49-60; source: E. coli, purified
